From patent US20200405700A1 (priority 2019, published 2020)

Assay: Aerodynamic particle size distribution on Next Generation Impactor (NGI)
Type: physicochemical
Details: sample 14 sprayed by soft mist inhaler, NGI at 30 L/min
Procedure: Sample 14 was sprayed by a soft mist inhaler. Aerodynamic particle size distribution of droplets of sample 14 was measured on a Next Generation Impactor (NGI). Next Generation Impactor operated at a flow rate of 30 L/min was used for determination of particle size distribution. For each of the impactor experiments, the impactor collection stages were coated with a silicone oil. The particle size distribution is expressed in terms of mass median aerodynamic diameter (MMAD) and Geometric Standard Deviation (GSD).

O=C(O[C@H]1C[N+]2(CCCOc3ccccc3)CCC1CC2)C(O)(c1cccs1)c1cccs1.[Br-] [Aclidinium bromide, 3(R)-(2-hydroxy-2,2-dithien-2-ylacetoxy)-1-(3-phenoxypropyl)-1-azoniabicy-clo[2.2.2]octane bromide]
MMAD (mass median aerodynamic diameter): 4.49 μm
